In publication PMC11249637, “Interaction of the Atypical Tetracyclines Chelocardin and Amidochelocardin with Renal Drug Transporters” (ACS Pharmacology & Translational Science, 2024):

Tests used:
[1] = target: T1, mOct1 (Mus musculus, UniProt O08966); assay: Three-point uptake (substrate assessment) in mOct1-overexpressing HEK293 cells; type: in vitro ADME
T1 construct: expressed in transfected cells; host or cells: HEK293
T1 sequence (O08966 1-556): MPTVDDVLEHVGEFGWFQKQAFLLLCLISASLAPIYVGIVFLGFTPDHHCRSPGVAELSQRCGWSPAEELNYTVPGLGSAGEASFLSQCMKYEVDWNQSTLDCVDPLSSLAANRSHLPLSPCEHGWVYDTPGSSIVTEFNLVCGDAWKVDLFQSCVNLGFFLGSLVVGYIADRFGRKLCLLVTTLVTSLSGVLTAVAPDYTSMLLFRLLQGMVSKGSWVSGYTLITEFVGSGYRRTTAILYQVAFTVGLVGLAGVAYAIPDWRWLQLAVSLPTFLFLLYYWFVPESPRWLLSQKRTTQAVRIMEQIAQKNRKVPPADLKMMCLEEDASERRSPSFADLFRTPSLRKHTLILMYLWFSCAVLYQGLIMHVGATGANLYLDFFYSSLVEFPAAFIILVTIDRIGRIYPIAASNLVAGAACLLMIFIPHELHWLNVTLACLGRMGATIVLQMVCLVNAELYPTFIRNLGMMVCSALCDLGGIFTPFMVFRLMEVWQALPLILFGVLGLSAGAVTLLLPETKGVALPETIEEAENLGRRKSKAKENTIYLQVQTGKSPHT
Method: (§1) This is important to gain a better understanding of the underlying mechanisms of secretion into urine. Therefore, we assessed the amount of compound taken up by the vector and transporter cells at three different concentrations (1, 10, and 100 μM for mOat1 and mOct1; 0.1, 1, and 10 μM for mOat3) and at two different incubation periods (1 and 5 min for mOat1 and mOct1; 5 and 10 min for mOat3).
(§2) The incubation buffer contained CHD and CDCHD in a final concentration of 1, 10, and 100 μM. After 1 and 5 min, the incubation was terminated. In addition, the probe inhibitor decynium22 (50 μM) was added in one concentration to 10 μM CHD and CDCHD, respectively, and after 1 and 5 min, the incubation was stopped. Inhibition of mOct1-mediated ^3H-MPP (10 μM) uptake by 50 μM decynium22 was performed as a control experiment. After 1 min, the incubation was terminated. All experiments were conducted in triplicate.
First, a calibration curve was prepared by spiking different concentrations of CHD and CDCHD into the cell matrix. Caffeine was used as an internal standard. In addition, quality control samples (QCs) were prepared for CHD and CDCHD in a cell matrix. The following extraction procedures were used: 300 μL of acetonitrile/water (1:1) is added to the cell pellet (sample or calibration/QC sample) for 15 min at 2000 rpm on an Eppendorf MixMate vortex mixer. 10 μL of this extracted sample is used for further analysis. 10 μL of the extracted cell sample is further extracted with 25 μL of a mixture of methanol/acetonitrile (2:1) containing 12.5 ng/mL caffeine as an internal standard (on ice) for 5 min at 2000 rpm on an Eppendorf MixMate vortex mixer. Then, samples were spun down at 15,870 × g for 10 min. Supernatants were transferred to standard HPLC glass vials. Samples were analyzed using an Agilent 1290 Infinity II HPLC system coupled to an AB Sciex QTrap6500plus mass spectrometer. LC conditions were as follows: column: Agilent Zorbax Eclipse Plus C18, 50 × 2.1 mm, 1.8 μm; temperature: 30°C; injection volume: 5 μL per sample; flow rate: 700 μL/min. Samples were run under the following conditions. Solvents: A: 100% water +0.1% formic acid; solvent B: 100% acetonitrile +0.1% formic acid. The gradient for CDCHD was as follows: 99% A at 0 min, 99% A until 0.1 min, 99–90% A from 0.1 to 1.0 min, 90–50% A from 1.0 to 2.4 min, 50–35% A from 2.4 to 2.7 min, 35–0% A from 2.7 until 4.5 min, 0% A until 5.5 min, 0–99% from 5.5 to 5.7 min, 99% A until 6.0 min. The gradient for CHD was as follows: 99% A at 0 min, 99% A until 0.1 min, 99–90% A from 0.1 to 1.0 min, 90–55% A from 1.0 to 2.3 min, 55–40% A from 2.3 to 2.5 min, 40–0% A from 2.5 until 4.5 min, 0% A until 5.5 min, 0–99% from 5.5 to 5.7 min, 99% A until 6.0 min. Mass transitions are depicted in Table S2.
For statistical testing of differences in uptake ratio or for the inhibitory effect, an ordinary one-way ANOVA test was performed using GraphPad Prism 9.5.1 software. For statistical testing of difference in uptake on vector- or transporter-overexpressing cells, an ordinary two-way ANOVA test was performed using GraphPad Prism 9.5.1 software. Michaelis–Menten kinetics were determined using the Michaelis–Menten algorithm of GraphPad Prism 9.5.1 software. Image resolution was adjusted by using GIMP software.

[2] = target: T2, mOat1 (Mus musculus, UniProt Q8VC69); assay: Three-point uptake (substrate assessment) in mOat1-overexpressing HEK293 cells; type: in vitro ADME; conditions: 10 μM compound, 100 μM probenecid, 1 and 5 min
T2 construct: expressed in transfected cells; host or cells: HEK293
T2 sequence (Q8VC69 1-545): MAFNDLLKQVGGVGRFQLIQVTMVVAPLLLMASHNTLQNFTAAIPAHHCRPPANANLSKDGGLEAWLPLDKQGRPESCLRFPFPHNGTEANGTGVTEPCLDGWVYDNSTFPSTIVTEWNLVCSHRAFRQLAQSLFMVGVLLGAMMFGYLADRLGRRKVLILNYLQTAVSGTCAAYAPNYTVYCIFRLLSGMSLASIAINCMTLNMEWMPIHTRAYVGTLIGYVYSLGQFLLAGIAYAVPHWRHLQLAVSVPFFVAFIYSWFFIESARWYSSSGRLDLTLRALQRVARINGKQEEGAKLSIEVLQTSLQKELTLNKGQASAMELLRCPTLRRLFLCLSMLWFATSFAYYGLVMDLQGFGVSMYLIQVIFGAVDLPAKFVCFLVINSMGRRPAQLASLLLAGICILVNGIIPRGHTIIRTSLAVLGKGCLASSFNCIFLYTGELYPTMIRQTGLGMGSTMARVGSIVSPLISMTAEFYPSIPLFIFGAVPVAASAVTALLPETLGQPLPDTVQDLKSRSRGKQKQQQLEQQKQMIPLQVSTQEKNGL
Method: as §1
as §2, with “probenecid (100” for “decynium22 (50”, “mOat1-mediated ^3H-PAH” for “mOct1-mediated ^3H-MPP”, “100” for “50”, “probenecid” for “decynium22”, “All experiments were conducted in triplicate.” left out
First, a calibration curve was prepared by spiking different concentrations of CHD and CDCHD into the cell matrix. […] Samples were analyzed using an Agilent 1290 Infinity II HPLC system coupled to an AB Sciex QTrap6500plus mass spectrometer. […]
For statistical testing of differences in uptake ratio or for the inhibitory effect, an ordinary one-way ANOVA test was performed using GraphPad Prism 9.5.1 software. […] Michaelis–Menten kinetics were determined using the Michaelis–Menten algorithm of GraphPad Prism 9.5.1 software. […]

[3] = design: method as in PMID 339024; conditions: phase II clinical trial, 1970s; cited from earlier work

| SMILES | substrate of mOct1 (in words) [1] | uptake ratio (cells without vs with decynium22), mOct1 ([1]; 10 μM compound, 50 μM decynium22, 1 and 5 min) | mOct1: Vmax ([1]; Michaelis–Menten fit, 1, 10 and 100 μM) [nM/min] | uptake ratio (cells without vs with probenecid), mOat1 [2] | less uptake in the presence of the specific inhibitor decynium22, mOct1 ([1]; 10 μM compound, 50 μM decynium22, 5 min) | concentrations in urine [3] [ng/mL] | plasma concentrations [3] [ng/mL] |
| --- | --- | --- | --- | --- | --- | --- | --- |
| Cc1ccc2c(C)c3c(c(O)c2c1O)C(=O)[C@@]1(O)C(=O)C(C(N)=O)=C(O)[C@@H](N)[C@H]1C3 [CDCHD, amidochelocardin] | is not a substrate | 1 | 15.0 |  |  |  |  |
| CC(=O)C1=C(O)[C@@H](N)[C@H]2Cc3c(c(O)c4c(O)c(C)ccc4c3C)C(=O)[C@@]2(O)C1=O [CHD, chelocardin] | is a substrate |  |  | < 1 | around 50% | 11000 to 14000 | 1000 to 3000 |
